In the NIST ThermoML archive (doi:10.1021/je060271a):

Details: 343.15 K, Liquid, Vibrating tube method

CCCCCCC(=O)OCC(COC(=O)CCCCCC)(COC(=O)CCCCCC)COC(=O)CCCCCC [pentaerythritol tetraheptanoate]
Details | mass density [kg/m3]
5115 kPa | 944.4
5119.1 kPa | 944.5
5124.1 kPa | 944.5
5128.3 kPa | 944.5
5132.4 kPa | 944.4
5136.3 kPa | 944.4
5141.1 kPa | 944.4
5145.3 kPa | 944.4
5149.6 kPa | 944.5
5153.6 kPa | 944.5
5158.6 kPa | 944.5
5162.9 kPa | 944.5
5167.1 kPa | 944.5
5172.1 kPa | 944.5
5176 kPa | 944.4
5180 kPa | 944.5
5184.4 kPa | 944.4
5189.9 kPa | 944.6
5193.9 kPa | 944.4
5198 kPa | 944.4
5202.4 kPa | 944.7
5206.5 kPa | 944.5
5211.7 kPa | 944.6
5216 kPa | 944.6
5220.2 kPa | 944.5
5225 kPa | 944.6
5229.2 kPa | 944.5
5233.5 kPa | 944.5
5237.6 kPa | 944.5
5243.2 kPa | 944.5
5247.3 kPa | 944.7
5251.8 kPa | 944.5
5256 kPa | 944.7
5260.8 kPa | 944.6
5265 kPa | 944.6
5269.7 kPa | 944.6
5273.8 kPa | 944.5
5277.8 kPa | 944.7
5281.4 kPa | 944.6
5285 kPa | 944.6
5291.6 kPa | 944.7
5300.3 kPa | 944.5
5308.9 kPa | 944.7
5319.5 kPa | 944.7
5328.6 kPa | 944.7
5337.3 kPa | 944.6
5348.2 kPa | 944.6
5357.2 kPa | 944.7
5366.4 kPa | 944.6
5375.7 kPa | 944.6
5386.4 kPa | 944.6
5395.4 kPa | 944.7
5406.3 kPa | 944.9
5415.5 kPa | 944.8
5425 kPa | 944.8
5434.7 kPa | 944.7
5444 kPa | 944.7
5453.7 kPa | 944.7
5464.8 kPa | 944.8
5473.8 kPa | 944.7
5485 kPa | 945
5494.5 kPa | 944.7
5504.2 kPa | 944.8
5513.7 kPa | 944.8
5525.5 kPa | 944.8
5535 kPa | 944.7
5544.7 kPa | 944.8
5554.7 kPa | 944.8
5568 kPa | 944.8
5576.2 kPa | 944.7
5587.6 kPa | 944.8
5597.4 kPa | 944.8
5607.3 kPa | 944.8
5619.2 kPa | 944.8
5629.1 kPa | 944.8
5639.1 kPa | 944.9
5650.9 kPa | 944.9
5660.8 kPa | 944.8
5671.1 kPa | 944.8
5681.5 kPa | 944.7
5694 kPa | 944.9
5705.1 kPa | 945
5715.3 kPa | 944.9
5725.9 kPa | 945
5737.8 kPa | 944.9
5748.4 kPa | 944.8
5758.7 kPa | 945
5771 kPa | 944.9
5781.7 kPa | 944.9
5791.9 kPa | 944.9
5802.8 kPa | 944.9
5815.5 kPa | 945.1
5826.5 kPa | 945
5837.6 kPa | 945.1
5848.7 kPa | 945
5862 kPa | 945
5872.5 kPa | 944.9
5883.3 kPa | 945
5894.5 kPa | 945.1
5907.6 kPa | 945.1
5918.9 kPa | 945
5930.1 kPa | 945.1
5941.2 kPa | 945
5954.7 kPa | 945.1
5965.7 kPa | 945.3
5977 kPa | 945
5990.6 kPa | 945.1
6002 kPa | 945
6013.3 kPa | 945.2
6026.9 kPa | 945.1
6038.5 kPa | 945.2
6050.1 kPa | 945.1
6063.9 kPa | 945.1
6075.5 kPa | 945.2
6087.4 kPa | 945.2
6099.2 kPa | 945.2
6113 kPa | 945.2
6125.1 kPa | 945.2
6137.2 kPa | 945.3
6149.3 kPa | 945.1
6163.7 kPa | 945.3
6175.6 kPa | 945.3
6187.7 kPa | 945.2
6199.8 kPa | 945.2
6214.5 kPa | 945.3
6226.9 kPa | 945.3
6239.4 kPa | 945.3
6253.9 kPa | 945.3
6266.1 kPa | 945.3
6278.6 kPa | 945.3
6293.3 kPa | 945.3
6306.2 kPa | 945.3
6319 kPa | 945.5
6332 kPa | 945.3
6347 kPa | 945.4
6359.8 kPa | 945.5
6372.6 kPa | 945.4
6385.6 kPa | 945.4
6400.6 kPa | 945.4
6413.9 kPa | 945.4
6426.9 kPa | 945.3
6442.4 kPa | 945.3
6456.1 kPa | 945.4
6469 kPa | 945.5
6482.7 kPa | 945.4
6499.1 kPa | 945.6
6512.8 kPa | 945.5
6525.9 kPa | 945.5
6541.8 kPa | 945.6
6555.1 kPa | 945.6
6568.9 kPa | 945.6
6585.3 kPa | 945.5
6598.8 kPa | 945.5
6612.5 kPa | 945.5
6629.2 kPa | 945.6
6643.2 kPa | 945.5
6657.6 kPa | 945.7
6671.9 kPa | 945.5
6687.1 kPa | 945.5
6704 kPa | 945.6
6718.4 kPa | 945.6
6732.5 kPa | 945.6
6747.4 kPa | 945.7
6764.3 kPa | 945.8
6779.2 kPa | 945.8
6793.5 kPa | 945.7
6811.1 kPa | 945.6
6825.8 kPa | 945.6
6840.7 kPa | 945.8
6855.9 kPa | 945.7
6874.2 kPa | 945.8
6887.1 kPa | 945.8
6904.9 kPa | 945.9
6920.2 kPa | 945.8
6935.6 kPa | 945.8
6953.6 kPa | 945.8
6968.8 kPa | 945.9
6984.8 kPa | 945.8
7000.2 kPa | 945.7
7019.2 kPa | 946
7034.9 kPa | 945.7
7050.8 kPa | 945.8
7069.3 kPa | 945.8
7085.7 kPa | 945.9
7101.8 kPa | 945.9
7117.8 kPa | 946
7137.2 kPa | 945.9
7153.2 kPa | 946
7169.6 kPa | 945.9
7186 kPa | 945.8
7205.5 kPa | 945.9
7221.8 kPa | 946
7241.8 kPa | 946
7258.6 kPa | 946
7275.1 kPa | 945.9
7292.1 kPa | 946.1
7312.3 kPa | 946.1
7329.7 kPa | 946.2
7347 kPa | 946.1
7364.6 kPa | 946.1
7385.1 kPa | 946.1
7402.4 kPa | 946.2
7420 kPa | 946.2
7437.8 kPa | 946.2
7458.7 kPa | 946.2
7476.1 kPa | 946.2
7494.2 kPa | 946.1
7515.3 kPa | 946.3
7533.4 kPa | 946.1
7551.9 kPa | 946.3
7570.4 kPa | 946.3
7592.1 kPa | 946.3
7610.3 kPa | 946.4
7628.9 kPa | 946.4
7650.8 kPa | 946.3
7669.1 kPa | 946.3
7688.1 kPa | 946.3
7710.2 kPa | 946.3
7729.2 kPa | 946.3
7748.3 kPa | 946.4
7767.5 kPa | 946.4
7790.8 kPa | 946.4
7810.5 kPa | 946.5
7830.3 kPa | 946.5
